In test [1] the target is T1, SARS-CoV-2 PLpro (nsp3 1564–1878) (Severe acute respiratory syndrome coronavirus 2, UniProt P0DTD1). Briefly: biochemical. Further details: FRET-quenched peptide (Pro3) cleavage by PLpro, 10 min pre-incubation, slope over 20 min, normalised to no-compound control. As to conditions: low concentration screen, read-out: % of control remaining.
For test [2], the target named is T1, SARS-CoV-2 PLpro (nsp3 1564–1878). Briefly: biochemical. The conditions noted are these: high concentration screen, read-out: % of control remaining. Further details: FRET-quenched peptide (Pro3) cleavage by PLpro, 10 min pre-incubation, slope over 20 min, normalised to no-compound control.

The results in this text go back to PMC8286840, “Identifying SARS-CoV-2 antiviral compounds by screening for small molecule inhibitors of Nsp3 papain-like protease” (Biochemical Journal, 2021).

Counter-ions that a name gives are not always drawn. Like-named read-outs stand apart in the source and are kept apart here.

For the compound `Nc1ncnc2c1ncn2[C@@H]1O[C@@H]2CO[P@@](=O)(O)O[C@H]3[C@@H](O)[C@H](n4cnc5c(N)ncnc54)O[C@@H]3CO[P@@](=O)(O)O[C@H]2[C@H]1O` [c-di-AMP], the remaining activity at 1.25 µM worked out at 91.4% in test [1] (Well no.=7914) and 104% in test [1] (Well no.=8703). The remaining activity at 3.75 µM in test [2] (Well no.=7914) turned out to be 90.2%; in test [2] (Well no.=8703) it was 102%.
Take `OCCN1CCN(CC/C=C2/c3ccccc3Sc3ccc(C(F)(F)F)cc32)CC1` [cis-(Z)-Flupenthixol dihydrochloride]: the remaining activity at 1.25 µM in test [1] (Well no.=617) is 99.6%. Moreover, in test [2] (Well no.=617), the remaining activity at 3.75 µM was 98.7%.
Regarding `O=C(O)[C@@H]1C[C@H](C(=O)O)N1` [cis-Azetidine-2,4-dicarboxylic acid], the remaining activity at 1.25 µM in test [1] (Well no.=20) was determined as 101%. In addition, in test [2] (Well no.=20), the remaining activity at 3.75 µM is 99.7%.
Regarding `CCn1nc(C)cc1C(=O)Nc1nc2cc(C(N)=O)cc(OC)c2n1C/C=C/Cn1c(NC(=O)c2cc(C)nn2CC)nc2cc(C(N)=O)cc(OCCCN3CCOCC3)c21` [diABZI STING agonist-1 (trihydrochloride)], the remaining activity at 1.25 µM in test [1] (Well no.=8553) is 110%. In addition, the remaining activity at 3.75 µM in test [2] (Well no.=8553) was determined as 102%.
With `CCCCCCCCCCCCCCCCn1cc[n+](Cc2ccccc2)c1C` [eEF-2 Kinase Inhibitor, NH125], the remaining activity at 1.25 µM in test [1] (Well no.=2790) was found to be 102%. The remaining activity at 3.75 µM in test [2] (Well no.=2790) is 108%.
Take `CCCCCC[C@@H]([C@@H](C)O)n1cnc2c(N)ncnc21` [erythro-9-(2-Hydroxy-3-nonyl)adenine hydrochloride]: the remaining activity at 1.25 µM in test [1] (Well no.=513) is 105%. Further, in test [2] (Well no.=513), the remaining activity at 3.75 µM was 105%.
For the compound `CCOC(=O)[C@@H](N)CCC(=O)N[C@@H](CSCc1ccccc1)C(=O)N[C@@H](C(=O)OCC)c1ccccc1` [ethyl N5-((R)-3-(benzylthio)-1-(((R)-2-ethoxy-2-oxo-1-phenylethyl)amino)-1-oxopropan-2-yl)-L-glutaminate], in test [1] (Well no.=5457), the remaining activity at 1.25 µM worked out at 105%. In test [2] (Well no.=5457), the remaining activity at 3.75 µM stood at 108%.
For `C#CC(N)CCC(=O)O` (centres unmarked) [gamma-Acetylinic GABA], the remaining activity at 1.25 µM in test [1] (Well no.=258) is 94%. Besides, in test [2] (Well no.=258), the remaining activity at 3.75 µM was found to be 94.8%.
For `N[C@H](CCC(=O)NCS(=O)(=O)O)C(=O)O` [gamma-D-Glutamylaminomethylsulfonic acid], in test [1] (Well no.=652), the remaining activity at 1.25 µM was 92.4%. In addition, the remaining activity at 3.75 µM in test [2] (Well no.=652) stood at 94%.
For the compound `COc1cc(C(O)C(=O)O)ccc1O` (centres unmarked) [hydroxy(4-hydroxy-3-methoxyphenyl)acetic acid], the remaining activity at 1.25 µM in test [1] (Well no.=5433) amounted to 103%. In test [2] (Well no.=5433), the remaining activity at 3.75 µM is 108%.
Consider `O[C@H]1[C@H](O)[C@@H](O)[C@H](O)[C@@H](O)[C@H]1O` [i-Inositol], for which the remaining activity at 1.25 µM in test [1] (Well no.=6495) was determined as 98.4%. The remaining activity at 3.75 µM in test [2] (Well no.=6495) amounted to 101%.
`O=C1NCCSc2c1sc1ccc(O)cc21` [kb NB 142-70]: the remaining activity at 1.25 µM in test [1] (Well no.=6738) was 92%. In test [2] (Well no.=6738), the remaining activity at 3.75 µM worked out at 92.4%.
As to `CC(C(=O)O)c1ccc(CC2CCCC2=O)cc1` (centres unmarked) [loxoprofen], the remaining activity at 1.25 µM in test [1] (Well no.=927) was determined as 104%. Further, the remaining activity at 3.75 µM in test [2] (Well no.=927) turned out to be 105%.
On to `CN1CCN2c3c(cccc31)[C@@H]1CN(CCCC(=O)c3ccc(F)cc3)CC[C@@H]12` [lumateperone (Tosylate)], for which the remaining activity at 1.25 µM in test [1] (Well no.=7807) turned out to be 104%. Further, the remaining activity at 3.75 µM in test [2] (Well no.=7807) stood at 108%.
On to `Cc1cc(C)c(S(=O)(=O)Nc2cccc(C(F)(F)F)c2)c(C)c1` [m -3M3FBS], for which the remaining activity at 1.25 µM in test [1] (Well no.=5841) was found to be 99.6%. The remaining activity at 3.75 µM in test [2] (Well no.=5841) came to 98.2%.
With `NC(N)=NCc1cccc(I)c1` [m -Iodobenzylguanidine hemisulfate salt], the remaining activity at 1.25 µM in test [1] (Well no.=6075) was determined as 99.1%. Also, the remaining activity at 3.75 µM in test [2] (Well no.=6075) came out at 97.8%.
In the case of `NC(N)=NCc1cccc(I)c1` [m-Iodobenzylguanidine hemisulfate], the remaining activity at 1.25 µM in test [1] (Well no.=777) came to 105%. In test [2] (Well no.=777), the remaining activity at 3.75 µM was determined as 108%.
Consider `OC[C@@H](O)[C@@H](O)CO` [meso-Erythritol], for which, in test [1] (Well no.=6547), the remaining activity at 1.25 µM is 107%. Further, in test [2] (Well no.=6547), the remaining activity at 3.75 µM came to 106%.
